Measured values reported in the supplement of paper PMC10307832.

Experiments:
Test in all cases: relative viability (nuclei count vs DMSO), 5 days (fraction); higher = more cells survive
[1] = compound: CN(C)CC1=CC(=CC=C1)N=C(C2=CC=CC=C2)C3=C(NC4=C3C=CC(=C4)C(=O)N(C)C)O
Method in brief: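 Lung cancer cell lines received five library-drug doses (not always all listed) spaced by √10, pinned on vehicle-anchored 1536-well plates after an overnight stay at 37 °C. Five days later, with no medium change, nuclei were Hoechst-stained, imaged at 4× and counted with MetaXpress. Viability is treated-well nuclei relative to vehicle-well nuclei, as a median across plates. Passing plates had control CV below 25% and at least one doubling.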

[2] = compound: CN(C)CC1=CC(=CC=C1)N=C(C2=CC=CC=C2)C3=C(NC4=C3C=CC(=C4)C(=O)N(C)C)O + CC(=O)Nc1cccc(-n2c(=O)n(C3CC3)c(=O)c3c(Nc4ccc(I)cc4F)n(C)c(=O)c(C)c32)c1 [Trametinib] (partner 0.02 µM)
Method in brief: (§1)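 One day after seeding in 1536-well plates, lung cancer cell lines were dosed by pin tool. Dosing was either single-drug or a fixed anchor-drug dose plus five library-drug doses (not always all listed) in √10 steps. After 5 days, nuclei were stained in one fix-and-stain step and counted on 4× images, and relative viability is the nuclei count of treated wells over that of vehicle wells, given as the median of duplicate plates.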

[3] = compound: CN(C)CC1=CC(=CC=C1)N=C(C2=CC=CC=C2)C3=C(NC4=C3C=CC(=C4)C(=O)N(C)C)O + N=C(N)NC(=N)NCCc1ccccc1 [Phenformin] (partner 250 µM)
Method in brief: as §1

[4] = compound: CN(C)CC1=CC(=CC=C1)N=C(C2=CC=CC=C2)C3=C(NC4=C3C=CC(=C4)C(=O)N(C)C)O + COc1cccc2cc(-c3nc([C@H]4CC[C@H](C(=O)O)CC4)n4ncnc(N)c34)[nH]c12 [OSI-027] (partner 0.5 µM)
Method in brief: as §1

Row | Cell Line | relative viability ([1]; 0.08 µM) | relative viability ([1]; 0.253 µM) | relative viability ([1]; 0.8 µM) | relative viability ([1]; 2.53 µM) | relative viability ([1]; 8 µM) | relative viability ([2]; first compound 0.08 µM) | relative viability ([2]; first compound 0.253 µM) | relative viability ([2]; first compound 0.8 µM) | relative viability ([2]; first compound 2.53 µM) | relative viability ([2]; first compound 8 µM) | relative viability ([3]; first compound 0.08 µM) | relative viability ([3]; first compound 0.253 µM) | relative viability ([3]; first compound 0.8 µM) | relative viability ([3]; first compound 2.53 µM) | relative viability ([3]; first compound 8 µM) | relative viability ([4]; first compound 0.08 µM) | relative viability ([4]; first compound 0.253 µM) | relative viability ([4]; first compound 0.8 µM) | relative viability ([4]; first compound 2.53 µM) | relative viability ([4]; first compound 8 µM)
1 | LOU-NH91 | 0.954 | 1.03 | 0.789 | 0.96 | 0.913 | 0.76 | 0.807 | 0.759 | 0.818 | 0.788 | 0.697 | 0.652 | 0.548 | 0.714 | 0.699 | 0.691 | 0.713 | 0.561 | 0.762 | 0.689
2 | LU99A | 0.893 | 0.934 | 0.966 | 0.885 | 0.87 | 0.504 | 0.499 | 0.571 | 0.482 | 0.411 | 0.737 | 0.874 | 0.862 | 0.655 | 0.757 | 0.245 | 0.346 | 0.341 | 0.297 | 0.286
3 | LXF-289 | 1.01 | 0.955 | 0.993 | 0.971 | 0.955 | 0.669 | 0.628 | 0.643 | 0.573 | 0.655 | 0.499 | 0.489 | 0.518 | 0.518 | 0.473 | 0.769 | 0.731 | 0.707 | 0.713 | 0.639
4 | NCI-H23 | 1.09 | 1.03 | 1.06 | 1.02 | 0.815 | – | 0.503 | 0.357 | 0.404 | 0.339 | 0.796 | 0.781 | 0.787 | 0.764 | 0.691 | 0.609 | 0.696 | 0.518 | 0.683 | 0.378
5 | NCI-H322M | 0.823 | 0.996 | 0.794 | 0.75 | 0.651 | 0.49 | 0.497 | 0.477 | 0.487 | 0.468 | 0.685 | 0.801 | 0.669 | 0.631 | 0.551 | 0.581 | 0.562 | 0.555 | 0.499 | 0.475
6 | NCI-H358 | 0.94 | 0.789 | 0.705 | 0.879 | 0.784 | 0.146 | 0.171 | 0.125 | 0.092 | 0.129 | 0.349 | 0.343 | 0.201 | 0.303 | 0.313 | 0.824 | 0.706 | 0.633 | 0.671 | 0.549
7 | NCI-H1299 | 0.998 | 1.03 | 1.01 | 1.01 | 0.977 | – | – | – | – | – | – | – | – | – | – | – | – | – | – | –
8 | NCI-H1563 | 1.02 | 1 | 0.905 | 0.861 | 0.783 | – | – | – | – | – | 0.641 | 0.7 | 0.654 | 0.648 | 0.658 | 0.723 | 0.811 | 0.775 | 0.766 | 0.708
9 | NCI-H1648 | 0.851 | 0.657 | 0.749 | 0.884 | 0.915 | 0.482 | 0.368 | – | 0.534 | 0.554 | – | – | – | – | – | 0.266 | – | 0.308 | 0.277 | 0.252
10 | NCI-H1703 | 0.989 | 0.847 | 1.11 | 0.63 | 0.349 | – | – | – | – | – | – | – | – | – | – | – | – | – | – | –
